These results are taken from article PMC12463534, “Exploring the Anticancer Properties of 4-Phenylthiazole-Based Ru(II) and Os(II) Metallacycles Featuring 1-Methylimidazole as N-Donor Functionality” (Bioinorganic Chemistry and Applications, 2025).

The test system of the assay is SW480 cells. The assay is described as follows: DCFH-DA assay, cellular ROS levels. In kind it is cell-based, human. The settings on record: 2 h, concentration dependent.

On to `Cc1ccc(C(C)C)cc1.Cn1cc[n+]([Ru-]2[c]3cc(S(C)(=O)=O)ccc3-c3csc[n+]32)c1.O=[N+]([O-])[O-]` [Compound 3c, [((3-κN)-1-Methylimidazole)(4-(4-(methylsulfonyl)phenyl)thiazolato-κN,κC2′)(η^6-p-cymene)ruthenium(II)] Nitrate], for which the “Effect on intracellular ROS levels” value was “constantly decrease ROS levels with increasing concentrations”.
